Where two headings read alike, the source gives them in different places.
Target: T1, human GPBAR1 receptor (Homo sapiens, UniProt Q8TDU6)
T1 construct: expressed in transfected cells
T1 sequence (Q8TDU6 1-330): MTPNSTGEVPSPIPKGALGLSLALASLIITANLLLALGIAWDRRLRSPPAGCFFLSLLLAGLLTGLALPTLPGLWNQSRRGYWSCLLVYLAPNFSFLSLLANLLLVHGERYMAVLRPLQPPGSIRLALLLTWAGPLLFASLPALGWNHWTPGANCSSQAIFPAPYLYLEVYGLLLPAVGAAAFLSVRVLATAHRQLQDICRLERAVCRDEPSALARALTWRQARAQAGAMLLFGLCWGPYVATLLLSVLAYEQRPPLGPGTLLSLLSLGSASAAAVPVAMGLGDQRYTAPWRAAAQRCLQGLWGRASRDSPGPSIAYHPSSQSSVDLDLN
Assay: functional cAMP assay in CHO-dhfr(minus) cells expressing human GPBAR1 receptors
Type: cell-based
Conditions: 30 min at 30° C.
Summary of the method: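 Agonist cAMP read-out: stable GPBAR1 CHO-dhfr− clone, 30 min compound exposure at 30° C following 30 min IBMX (1 mM) preincubation in Krebs Ringer bicarbonate. Time-resolved energy-transfer detection gives EC50; parental CHO cells serve as counter-screen.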

[1] = human EC50, functional cAMP assay

SMILES | EC50 [1] | EC50 (functional cAMP assay, read-out: human EC50)
Cc1cc(C(CC(c2cccc(-c3ccc(C(=O)O)nc3)c2)c2ccccc2C)=NO)ccn1 (racemic) [Example 99, 5-{3-[3-[Hydroxyimino]-3-(2-methyl-pyridin-4-yl)-1-o-tolyl-propyl]-phenyl}-pyridine-2-carboxylic acid] | 5.05 µM | 
Cc1cc(/C(CC(c2ccc(-c3c[nH]c(=O)[nH]c3=O)cc2)c2ccc(Cl)cc2F)=N/O)ccn1 (stereo not shown) [Example 458, 5-{4-[1-(4-Chloro-2-fluoro-phenyl)-3-[(E)-hydroxyimino]-3-(2-methyl-pyridin-4-yl)-propyl]-phenyl}-1H-pyrimidine-2,4-dione] | 0.022 µM | 
CS(=O)(=O)c1cccc(-c2cccc(C(C/C(=N\O)c3ccncc3)c3ccccc3)c2)c1 (stereo not shown) [Example 23, (E)-3-(3′-Methanesulfonyl-biphenyl-3-yl)-3-phenyl-1-pyridin-4-yl-propan-1-one oxime] | 0.492 µM | 
Cc1cc(/C(C[C@H](c2ccc(N3CCC(C(N)=O)CC3)cc2)c2ccccc2C)=N/O)ccn1 [Example 367, (R,E)-1-(4-(3-(Hydroxyimino)-3-(2-methylpyridin-4-yl)-1-o-tolylpropyl)phenyl)piperidine-4-carboxamide] | 0.001 µM | 
O/N=C(\CC1c2ccccc2CCc2ccccc21)c1ccncc1 [Example 60, (E)-2-(10,11-Dihydro-5H-dibenzo[a,d]cyclohepten-5-yl)-1-pyridin-4-yl-ethanone oxime] | 0.81 µM | 
Cc1cc(/C(C[C@H](c2ccc(C3=CCNCC3)cc2)c2ccccc2C)=N/O)ccn1 [Example 375, (R,E)-1-(2-Methylpyridin-4-yl)-3-(4-(1,2,3,6-tetrahydropyridin-4-yl)phenyl)-3-o-tolylpropan-1-one oxime] | 0.075 µM | 
Cc1cc(/C(CC(c2ccc(C(=O)N3CCN(S(C)(=O)=O)CC3)cc2)c2ccc(F)cc2F)=N/O)ccn1 (stereo not shown) [Example 439, 3-(2,4-Difluoro-phenyl)-3-[4-(4-methanesulfonyl-piperazine-1-carbonyl)-phenyl]-1-(2-methyl-pyridin-4-yl)-propan-1-one oxime] | 0.081 µM | 
Cc1cc(/C(C[C@@H](c2ccc(-c3ccc(C(=O)O)c(F)c3)cc2)c2ccc(Cl)cc2F)=N/O)ccn1 (single isomer, unassigned) [Example 449, 4′-[(+)-1-(4-Chloro-2-fluoro-phenyl)-3-[(E)-hydroxyimino]-3-(2-methyl-pyridin-4-yl)-propyl]-3-fluoro-biphenyl-4-carboxylic acid] | 0.009 µM | 
Cc1cc(C)cc(C(CC(=NO)c2ccncc2)c2ccc(N(C)C)cc2)c1 (racemic) [Example 18, 3-(4-Dimethylamino-phenyl)-3-(3,5-dimethyl-phenyl)-1-pyridin-4-yl-propan-1-one oxime] | 0.661 µM | 
COc1cc(-c2ccc(C(C/C(=N\O)c3ccnc(C)c3)c3ccc(Cl)cc3F)cc2)ccc1C(=O)O (stereo not shown) [Example 455, 4′-[1-(4-Chloro-2-fluoro-phenyl)-3-[(E)-hydroxyimino]-3-(2-methyl-pyridin-4-yl)-propyl]-3-methoxy-biphenyl-4-carboxylic acid] | 0.012 µM | 
Cc1ccc(-c2ccc(C(C/C(=N\O)c3ccncc3)c3ccccc3)cc2)cn1 (stereo not shown) [Example 25, (E)-3-[4-(6-Methyl-pyridin-3-yl)-phenyl]-3-phenyl-1-pyridin-4-yl-propan-1-one oxime] | 0.356 µM | 
Cn1cc(/C(CC(c2ccc(Br)cc2)C2CCC2)=N/O)ccc1=O (stereo not shown) [Example 179, 5-{3-(4-Bromo-phenyl)-3-cyclobutyl-1-[(E)-hydroxyimino]-propyl}-1-methyl-1H-pyridin-2-one] | 0.165 µM | 
Cc1cc(/C(=N/O)C(C)[C@H](c2ccc(Br)cc2)c2ccc(Cl)cc2C)ccn1 (stereo partly drawn) [Example 385, (3R,E)-3-(4-bromophenyl)-3-(4-chloro-2-methylphenyl)-2-methyl-1-(2-methylpyridin-4-yl)propan-1-one oxime] | 0.698 µM | 
[O-][n+]1ccc(/C(CC(c2ccccc2)c2ccc(Br)cc2)=N/O)cc1 (stereo not shown) [Example 15, (E)-3-(4-Bromo-phenyl)-1-(1-oxy-pyridin-4-yl)-3-phenyl-propan-1-one oxime] | 0.206 µM | 
Cc1cc(C(CC(c2cccc(CCCO)c2)c2ccccc2C)=NO)ccn1 (racemic) [Example 107, 3-[3-(3-Hydroxy-propyl)-phenyl]-1-(2-methyl-pyridin-4-yl)-3-o-tolyl-propan-1-one oxime] | 0.153 µM | 
Cc1ccccc1C(C/C(=N\O)c1cc(Cl)ccc1Cl)c1ccc(Br)cc1 (single isomer, unassigned; (+)) [Example 50, (+)-(E)-3-(4-Bromo-phenyl)-1-(2,5-dichloro-phenyl)-3-o-tolyl-propan-1-one oxime] | 0.769 µM | 
Cc1cc(/C(C[C@H](c2ccc(N3CCCC3=O)cc2)c2ccccc2C)=N/O)ccn1 [Example 299, 1-{4-[(R)-3-[(E)-Hydroxyimino]-3-(2-methyl-pyridin-4-yl)-1-o-tolyl-propyl]-phenyl}-pyrrolidin-2-one] | 0.028 µM | 
ON=C(CC(c1ccccc1)c1ccccc1)c1cc(F)ncc1Cl (racemic) [Example 58, 1-(5-Chloro-2-fluoro-pyridin-4-yl)-3,3-diphenyl-propan-1-one oxime] | 0.076 µM | 

Further lines, results first:

EC50 [1] | EC50 (functional cAMP assay, read-out: human EC50) | SMILES
0.023 µM |  | Cc1cc(/C(C[C@H](c2ccc(CC(=O)NCCO)cc2)c2ccccc2C)=N/O)ccn1 [Example 289, N-(2-Hydroxy-ethyl)-2-{4-[(R)-3-[(E)-hydroxyimino]-3-(2-methyl-pyridin-4-yl)-1-o-tolyl-propyl]-phenyl}-acetamide]
0.099 µM |  | Cc1ccccc1[C@H](C/C(=N\O)c1ccc(=O)n(C)c1)c1ccc(C2CCN(S(C)(=O)=O)CC2)cc1 [Example 509, (R,E)-5-(1-(Hydroxyimino)-3-(4-(1-(methylsulfonyl)piperidin-4-yl)phenyl)-3-o-tolylpropyl)-1-methylpyridin-2(1H)-one]
0.138 µM |  | Cn1cc(/C(CC(c2ccc(-c3ccc(C(=O)O)cc3)cc2)c2ccc(F)cc2F)=N/O)ccc1=O (stereo not shown) [Example 403, 4′-[1-(2,4-Difluoro-phenyl)-3-[(E)-hydroxyimino]-3-(1-methyl-6-oxo-1,6-dihydro-pyridin-3-yl)-propyl]-biphenyl-4-carboxylic acid]
0.049 µM |  | Cc1cc(F)ccc1C(C/C(=N\O)c1ccc(=O)n(C)c1)c1ccc(-c2ccc(C(=O)O)cc2)cc1 (stereo not shown) [Example 225, (E)-4′-(1-(4-Fluoro-2-methylphenyl)-3-(hydroxyimino)-3-(1-methyl-6-oxo-1,6-dihydropyridin-3-yl)propyl)biphenyl-4-carboxylic acid]
0.03 µM |  | Cc1cc(Cl)ccc1C(C/C(=N\O)c1ccc(=O)n(C)c1)c1ccc(-c2ccc(C(=O)NCC(=O)O)cc2)cc1 (single isomer, unassigned; (-)) [Example 255, (−)-({4′-[1-(4-Chloro-2-methyl-phenyl)-3-[(E)-hydroxyimino]-3-(1-methyl-6-oxo-1,6-dihydro-pyridin-3-yl)-propyl]-biphenyl-4-carbonyl}-amino)-acetic acid]
0.129 µM |  | Cc1cc(Cl)ccc1C(C/C(=N\O)c1ccc(=O)n(C)c1)c1ccc(C(=O)NCCO)cc1 (stereo not shown) [Example 332, (E)-4-(1-(4-Chloro-2-methylphenyl)-3-(hydroxyimino)-3-(1-methyl-6-oxo-1,6-dihydropyridin-3-yl)propyl)-N-(2-hydroxyethyl)benzamide]
0.041 µM |  | Cc1cc(/C(C[C@H](c2ccc(CC(=O)O)cc2)c2ccc(Cl)cc2C)=N/O)ccn1 [Example 382, {4-[(R)-1-(4-Chloro-2-methyl-phenyl)-3-[(E)-hydroxyimino]-3-(2-methyl-pyridin-4-yl)-propyl]-phenyl}-acetic acid]
0.015 µM |  | CNC(=O)c1ccc([C@@H](C/C(=N\O)c2ccnc(C)c2)c2ccccc2C)cc1 [Example 278, 4-[(R)-3-[(E)-Hydroxyimino]-3-(2-methyl-pyridin-4-yl)-1-o-tolyl-propyl]-N-methyl-benzamide]
0.007 µM |  | Cc1ccccc1[C@H](C/C(=N\O)c1ccc(=O)n(C)c1)c1ccc(C#N)cc1 [Example 498, (R,E)-4-(3-(Hydroxyimino)-3-(1-methyl-6-oxo-1,6-dihydropyridin-3-yl)-1-o-tolylpropyl)benzonitrile]
0.036 µM |  | CC(=O)N1CCC(c2ccc([C@@H](C/C(=N\O)c3ccnc(C)c3)c3ccc(Cl)cc3C)cc2)CC1 [Example 511, (R,E)-1-(4-(4-(1-(4-Chloro-2-methylphenyl)-3-(hydroxyimino)-3-(2-methylpyridin-4-yl)propyl)phenyl)piperidin-1-yl)ethanone]
 | 0.031 µM | Cc1cc(/C(C[C@H](c2ccc(C(=O)NCCO)cc2)c2ccccc2C)=N/O)ccn1 [Example 273, N-(2-Hydroxy-ethyl)-4-[(R)-3-[(E)-hydroxyimino]-3-(2-methyl-pyridin-4-yl)-1-o-tolyl-propyl]-benzamide]
0.38 µM |  | Cn1cc(/C(CC(c2ccc(C(=O)NCC(F)(F)F)c(F)c2)c2ccccc2Cl)=N/O)ccc1=O (stereo not shown) [Example 234, (E)-4-(1-(2-Chlorophenyl)-3-(hydroxyimino)-3-(1-methyl-6-oxo-1,6-dihydropyridin-3-yl)propyl)-2-fluoro-N-(2,2,2-trifluoroethyl)benzamide]
2.37 µM |  | Cc1ccccc1[C@H](C/C(=N\O)c1ccc(=O)n(C)c1)c1ccc(C2CCNCC2)cc1 [Example 507, (R,E)-5-(1-(Hydroxyimino)-3-(4-(piperidin-4-yl)phenyl)-3-o-tolylpropyl)-1-methylpyridin-2(1H)-one]
